{
  "source": "patent US6756368B1",
  "about": "“Use of cobalt chelates for treating or preventing virus infection” (The Trustees of Columbia University in the City of New York, priority 1999, dated 2004)",
  "key": {"[1]": {"details": "50 μg/ml of CTC-96; cited from earlier work"}, "[2]": {"system": "varicella-zoster virus (VZV)", "experiment": "VZV infection of Helf cells, immunohistochemistry", "assay_type": "cell-based, VZV strain Ellen", "description": "Helf cell monolayers seeded on two chambered slides were infected with 20 μl cell-associated VZV in 1% FBS DMEM in the presence and absence of 50 μg/ml CTC-96. At 28 h postinfection, the slides were washed twice with PBS, fixed in 3.7% formaldehyde in PBS for 30 min at room temperature, and washed again. The infected cells were washed twice with Tris-buffered saline (TBS) and incubated at −20° C. in −20° C. acetone for 10 min. Slides were washed twice with TBS, blocked with 1% goat serum (Sigma, St. Louis, Mo.) in TBS for 20 min at room temperature, and incubated in 200 μl 1:200 rabbit polyclonal anti-ORF 29 in 1% goat serum TBS for 30 min at room temperature. The slides were washed three times with TBS for 5 min each and then incubated with 200 μl 1:200 goat anti-rabbit IgG conjugated horseradish? peroxidase (Kirkegaard and Perry Laboratories Inc.) in 1% goat serum TBS for 30 min at room temperature. Slides were washed three times with TBS for 5 min each. The peroxidase was developed for 5 min using the commercial kit, Alkaline Phosphatase Substrate Kit III (Vector Laboratories Inc., Burlingame, Calif.) according to the manufacturer's directions and then washed several times with water. The slides were viewed with a Leitz Dialux microscope. Endocytosis assay. Vero cells seeded on cover slips were incubated at 37° C. in 5% BCS DMEM with and without 50 μg/ml CTC-96 for various times. […]"}, "VZV": {"system": "VZV", "experiment": "VZV plaque formation", "assay_type": "cell-based", "details": "data not shown"}, "293T cells": {"system": "293T cells", "experiment": "Cytotoxic effect of drug on 293T cells", "assay_type": "cell-based", "details": "50 μg/ml, no virus", "description": "2 plates of cells were incub. In D2 media +50 μg/ml CTC96 (to see cytotoxic effect of drug on 293T cells)\nPlates containing 293T cells +or − 50 μg/lm CTC96 were examined\nplates containing 293T cells +or − CTC96 were examined"}, "Vero cells": {"system": "Vero cells", "experiment": "Cytotoxic effect on Vero cell monolayers"}, "HSV-1 [3]": {"system": "HSV-1", "experiment": "Accumulation of α4 and α27 mRNAs (RT-PCR)", "assay_type": "cell-based, HSV-1 Glasgow strain 17", "description": "Vero cell monolayers were either mock infected or infected. The accumulation of α4 and α27 mRNAs from infected cells was determined as previously described [Lium and Silverstein 1997] by coupled reverse transcription (RT) and polymerase chain reaction (PCR) using the commercial kit, EZ rTth RNA PCR kit (Perkin-Elmer) as specified by the manufacturer with modifications. The primers used during RT were 4-2 and ICP27-L-RT [Lium and Silverstein 1997]. Following RT, secondary primers were added for PCR (4-1 and ICP27-U-RT) (55). These primers result in amplification of a 100 basepair (bp) fragment and a 220 bp fragment from the α4 and α27 genes, respectively.\nThe failure to detect virus specified polypeptides of any kinetic class in cells infected in the presence of CTC96 led us to ask if virus transcripts accumulated under these conditions. Accordingly, virus was incubated with 50 μg/ml of drug for 10 min and then either washed out by dilution and used to infect cells or used directly to infect cells. At 2 and 4 hr post infection cells were harvested and total infected cell RNA was prepared for analysis by RT-PCR for the presence of transcripts from the ∝4 and ∝27 genes. […] When these studies are carried out to as long as 8 hr pi there is still no detectable accumulation of virus-specified transcripts (data not shown). […] (FIG. 15)."}, "HSV-1 [4]": {"system": "HSV-1", "experiment": "Fluorescence dequenching fusion assay with R18 labeled HSV-1", "assay_type": "cell-based, HSV-1 Glasgow strain 17", "details": "50 μg/ml"}, "[5]": {"system": "adenovirus serotype 2 (Ad2)", "experiment": "Fluorescence focus assay, Ad2 on A549 cells", "assay_type": "cell-based", "details": "for Percent inhibition, Adenovirus: Ad2, A549", "description": "A549 or 293 cell monolayers were infected with Ad2 or Ad-CMV-null at 0.1 fluorescence focus units (FFUs) per cell for 2 h in 2% BCS DMEM in the presence and absence of 50 μg/ml CTC-96. At 29 h postinfection the plates were washed twice with PBS and fixed with methanol for 4 min at room temperature. Cells were washed twice with PBS, incubated in 500 μl 1:100 rabbit polyclonal anti-adenovirus serum in PBS for 30 min at room temperature and washed with PBS. Plates were then incubated in 500 μl 1:40 goat anti-rabbit IgG conjugated FITC in PBS. Foci were visualized using a Leitz Dialux microscope with an optical system for the selective visualization of FITC and then counted.\nA549s were plated on 35 mm dishes at 8×10^5 cell/plate in 10% FBS DMEM\nadded 19.25 μl stock to 50 μl total of each respective media (+/− 0, 5, 25 or 50 μg/ml CTC96)\nAfter 2 h-added 3 ml of each respective media\nIncubated @37° C. for 28 h (total)"}, "influenza virus": {"system": "influenza virus", "experiment": "Influenza virus plaque assay on MDCK cells", "assay_type": "cell-based, influenza virus strain PR8", "details": "magnitude not quantifiable"}},
  "note": "Entries after “also recorded” stand apart in the source; their conditions may differ.",
  "data": [
    {"smiles": "CC(/C=C(/C)[O-])=NCCN=C(C)/C=C(/C)[O-].Cc1ncc[nH]1.Cc1ncc[nH]1.[Br-].[Co+3]", "note": "[CTC-96]", "values": [
      {"measurement": "toxicity in animal models", "setting": "[1]", "result": "does not appear to be toxic"},
      {"measurement": "cells positive for VZV", "setting": "[2]; Helf cells, in the presence of CTC-96", "result": "Very few cells were positive"},
      {"measurement": "% Inhibition", "setting": "[2]; VZV (Ellen), Helt, 50 μg/ml of CTC-96, immunohistochemistry", "result": 100, "unit": "%"},
      {"measurement": "VZV plaque formation", "setting": "VZV", "result": "inhibition of VZV plaque formation"},
      {"measurement": "cells rounded (CPE)", "setting": "293T cells; examined after fixation at 28 h", "result": "at least 50%"},
      {"measurement": "cells off of plate", "setting": "293T cells; examined after staining", "result": 50, "unit": "%"},
      {"measurement": "remaining cells rounded up (CPE)", "setting": "293T cells; examined after staining", "result": 50, "unit": "%"},
      {"measurement": "effect on the cell monolayer", "setting": "Vero cells; 50 μg/ml, after two days of incubation", "result": "severely affected"},
      {"measurement": "cytotoxicity on Vero cell monolayers", "setting": "Vero cells; prolonged exposure (several days) to 50 μg/ml", "result": "cytotoxic effects; also recorded: cytotoxicity"},
      {"measurement": "time in which the action of the drug occurs", "setting": "HSV-1 [3]", "result": "less than 10 min"},
      {"measurement": "accumulation of α4 and α27 mRNAs", "setting": "HSV-1 [3]; 50 μg/ml present from onset of infection, 2 and 4 hr pi", "result": "neither the accumulation of α4 nor α27 mRNAs were detectable; also recorded: inhibits α4 and α27 gene expression"},
      {"measurement": "accumulation of α4 and α27 mRNAs", "setting": "HSV-1 [3]; 50 μg/ml present from onset of infection, 2 and 4 hr pi, listed as CTC96", "result": "no accumulation"},
      {"measurement": "accumulation of α4 and α27 mRNAs", "setting": "HSV-1 [3]; virus exposed to drug 10 min, drug then diluted/removed", "result": "began to accumulate"},
      {"measurement": "accumulation of α4 and α27 mRNAs", "setting": "HSV-1 [3]; virus exposed to drug 10 min, drug then diluted/removed, listed as CTC96", "result": "A small amount of immediate early gene RNA is detected"},
      {"measurement": "fusion of the virus envelope with the plasma membrane", "setting": "HSV-1 [4]", "result": "prevented HSV-1 fusion to the cell; also recorded: inhibits the fusion of the virion envelope with the plasma membrane; also recorded: inhibited"},
      {"measurement": "fluorescence dequenching of R18", "setting": "HSV-1 [4]; up to 40 min post-warming", "result": "significantly dampened"},
      {"measurement": "average foci per field", "setting": "[5]; 25 μg/ml, Plate 1", "result": "26 = 3.9"},
      {"measurement": "total foci counted", "setting": "[5]; 25 μg/ml, Plate 1", "result": 102},
      {"measurement": "average foci per field", "setting": "[5]; 25 μg/ml, Plate 2", "result": "? = 3.1"},
      {"measurement": "total foci counted", "setting": "[5]; 25 μg/ml, Plate 2", "result": 109},
      {"measurement": "average foci per field", "setting": "[5]; 50 μg/ml, Plate 1", "result": "47 = 1.6"},
      {"measurement": "total foci counted", "setting": "[5]; 50 μg/ml, Plate 1", "result": 73},
      {"measurement": "average foci per field", "setting": "[5]; 50 μg/ml, Plate 2", "result": "46 = 1.5"},
      {"measurement": "total foci counted", "setting": "[5]; 50 μg/ml, Plate 2", "result": 70},
      {"measurement": "% Inhibition", "setting": "[5]; Adenovirus (2), A549, 50 μg/ml of CTC-96, fluorescence focus assay", "result": 36, "unit": "%"},
      {"measurement": "Percent inhibition, Adenovirus", "setting": "[5]; CTC-96 25 μg/ml", "result": 18, "unit": "%"},
      {"measurement": "Percent inhibition, Adenovirus", "setting": "[5]; CTC-96 50 μg/ml", "result": 64, "unit": "%"},
      {"measurement": "effect on influenza virus infection", "setting": "influenza virus", "result": "positive virus inhibitory effect; also recorded: effective against influenza virus infection"}
    ]}
  ]
}
